Reference: patent US11274124B2, “Tubulysin analogues as anticancer agents and payloads for antibody-drug conjugates and methods of treatment therewith” (William Marsh Rice University, priority 2017, dated 2022)
Like-named read-outs stand apart in the source and are kept apart here.

Legend:
[1] = tested on: MES SA (uterine sarcoma cell line); assay: In vitro cytotoxicity assay (CellTiter-Glo, 72 hours), MES SA; format: cell-based; conditions: Homo sapiens, MES-SA, 72 h
[2] = tested on: HEK 293T (human embryonic kidney cancer cell line); assay: In vitro cytotoxicity assay (CellTiter-Glo, 72 hours), HEK 293T; format: cell-based; conditions: Homo sapiens, HEK-293T, 72 h
[3] = tested on: MES SA DX (MES SA cell line with marked multi-drug resistance); assay: In vitro cytotoxicity assay (CellTiter-Glo, 72 hours), MES SA DX; conditions: Homo sapiens, MES-SA, 72 h
[4] = tested on: MES SA, MES SA DX and HEK 293T cells; assay: In vitro cytotoxicity assay, structure-activity discussion over the cell lines tested; conditions: refers to Tables 2 and 3
[5] = read-out: MES SA, IC50 Value in nM
[6] = read-out: HEK 293T, IC50 Value in nM
[7] = read-out: MES SA DX, IC50 Value in nM

SMILES	IC50 ([1]; read-out: MES SA, IC50) [nM]	IC50 [1, 5] [nM]	IC50 ([2]; read-out: HEK 293T, IC50) [nM]	IC50 [2, 6] [nM]	IC50 ([3]; read-out: MES SA DX, IC50) [nM]	IC50 [3, 7] [nM]	cytotoxicity potency (in words, structure-activity discussion) [4]
CC[C@H](NC(=O)[C@H]1CCCCN1C)C(=O)N(C)[C@H](C[C@@H](OC(C)=O)c1nc(C(=O)N[C@@H](Cc2ccccc2)C[C@H](C)C(=O)O)cs1)C(C)C [Tb94, (2S,4R)-4-[({2-[(1R,3R)-1-acetoxy-4-methyl-3-{methyl[(2S)-2-({[(2R)-1-methylpiperidin-2-yl]carbonyl}amino)butanoyl]amino}pentyl]-1,3-thiazol-4-yl}carbonyl)amino]-2-methyl-5-phenylpentanoic acid]	0.46	0.46	0.4	0.4	89.8	89.8	significant potencies
CC(=O)O[C@H](C[C@H](C(C)C)N(C)C(=O)[C@@H](NC(=O)[C@H]1CCCCN1C)C(C)C)c1nc(C(=O)N[C@@H](Cc2ccccc2)C[C@H](C)C(=O)O)c(C(C)C)s1 [Tb73, (2S,4R)-4-[({2-[(1R,3R)-1-Acetoxy-4-methyl-3-{methyl[(2S)-3-methyl-2-({[(2R)-1-methylpiperidin-2-yl]carbonyl}amino)butanoyl]amino}pentyl]-5-isopropyl-1,3-thiazol-4-yl}carbonyl)amino]-2-methyl-5-phenylpentanoic acid]	1.28	1.28	0.16	0.16	44.7	44.7	significant loss of potency
CC(C)[C@H](NC(=O)[C@H]1CCCCN1C)C(=O)N(C)[C@H](CC(=O)c1nc(C(=O)N[C@@H](Cc2ccccc2)C[C@H](C)C(=O)O)cs1)C(C)C [Tb62, (2S,4R)-2-Methyl-4-[({2-[(3R)-4-methyl-3-{methyl[(2S)-3-methyl-2-({[(2R)-1-methylpiperidin-2-yl]-carbonyl}amino)butanoyl]amino}pentanoyl]-1,3-thiazol-4-yl}carbonyl)amino]-5-phenylpentanoic acid]	–	> 1000	–	> 1000	–	> 1000	significant reduction in potency
CC[C@H](C)[C@H](NC(=O)c1nccn1C)C(=O)N(C)[C@H](C[C@@H](OC(C)=O)c1nc(C(=O)N[C@@H](Cc2ccccc2)C[C@H](C)C(=O)OC)cs1)C(C)C [Tb51]	–	> 1000	–	> 1000	–	> 1000	insignificant or low biological activity
CCCCN1CCCC[C@@H]1C(=O)N[C@H](C(=O)N(C)[C@H](C[C@@H](OC(C)=O)c1nc(C(=O)N[C@H]2CC[C@H](C(=O)O)CC2)cs1)C(C)C)C(C)C [Tb55, trans-4-[({2-[(1R,3R)-1-Acetoxy-3-{[(2S)-2-({[(2R)-1-butylpiperidin-2-yl]carbonyl}amino)-3-methylbutanoyl](methyl)amino}-4-methylpentyl]-1,3-thiazol-4-yl}carbonyl)amino]cyclohexanecarboxylic acid]	–	> 1000	–	> 1000	–	> 1000	insignificant or low biological activity
CCOC(=O)[C@@H](C)CC(Cc1ccccc1)NC(=O)c1csc([C@@H](CC(C(C)C)N(C)C(=O)[C@@H](NC(=O)[C@H]2C[C@H](O[Si](C)(C)C(C)(C)C)CCN2C)C(C)C)OC(C)=O)n1 (stereo in doubt) [Tb77, Ethyl (2S,4S)-4-[({2-[(1R,3S)-1-acetoxy-3-{[(2S)-2-({[(4R)-4-{[tert-butyl(dimethyl)silyl]oxy}-1-meth-ylpiperidin-2-yl]carbonyl}amino)-3-methylbutanoyl](methyl)amino}-4-methylpentyl]-1,3-thiazol-4-yl}carbonyl)amino]-2-methyl-5-phenylpentanoate]	–	848	–	> 400	–	> 2500	insignificant or low biological activity
CCCC[C@H](NC(=O)[C@H]1CCCN1C)C(=O)N(C)[C@H](C[C@@H](OC(C)=O)c1nc(C(=O)N[C@@H](Cc2ccccc2)C[C@H](C)C(=O)OCC)cs1)C(C)C [Tb96, Ethyl (2S,4R)-4-[({2-[(1R,3R)-1-acetoxy-4-methyl-3-{methyl[(2S)-2-({[(2R)-1-methylpyrrolidin-2-yl]carbonyl}amino)hexanoyl]amino}pentyl]-1,3-thiazol-4-yl}carbonyl)amino]-2-methyl-5-phenylpentanoate]	–	10.5	–	5.26	–	> 1000	lack of or significantly lower cytotoxicities
CCOC(=O)[C@@H](C)C[C@H](Cc1ccccc1)NC(=O)c1csc([C@@H](C[C@H](C(C)C)N(C)C(=O)[C@H](CC)NC(=O)[C@H]2CCCCN2C)OC(C)=O)n1 [Tb93, Ethyl (2S,4R)-4-[({2-[(1R,3R)-1-acetoxy-4-methyl-3-{methyl[(2S)-2-({[(2R)-1-methylpiperidin-2-yl]-carbonyl}amino)butanoyl]amino}pentyl]-1,3-thiazol-4-yl}carbonyl)amino]-2-methyl-5-phenylpentanoate]	0.15	0.15	0.2	0.2	31.9	31.9	significant potencies
CCOC(=O)[C@@H](C)C[C@H](Cc1ccccc1)NC(=O)c1csc([C@@H](C[C@H](C(C)C)N(C)C(=O)[C@H](CCC(C)C)NC(=O)[C@H]2CCCN2C)OC(C)=O)n1 [Tb98, Ethyl (2S,4R)-4-[({2-[(1R,3R)-1-acetoxy-4-methyl-3-{methyl[(2S)-5-methyl-2-({[(2R)-1-methyl-pyrrolidin-2-yl]carbonyl}amino)hexanoyl]amino}pentyl]-1,3-thiazol-4-yl}carbonyl)amino]-2-meth-yl-5-phenylpentanoate]	–	41.8	–	26.5	–	393	lack of or significantly lower cytotoxicities
CC(=O)O[C@H](C[C@H](C(C)C)N(C)C(=O)[C@@H](NC(=O)[C@H]1CCCN1C)C(C)C)c1nc(C(=O)N[C@@H](Cc2ccccc2)C[C@H](C)C(=O)O)c(C)s1 [Tb71, (2S,4R)-4-[({2-[(1R,3R)-1-Acetoxy-4-methyl-3-{methyl[(2S)-3-methyl-2-({[(2R)-1-methylpyrrolidin-2-yl]carbonyl}amino)butanoyl]amino}pentyl]-5-methyl-1,3-thiazol-4-yl}carbonyl)amino]-2-methyl-5-phenylpentanoic acid]	–	1.42	–	0.408	–	> 1000	significant loss of potency
COC(=O)[C@@H](C)C[C@H](Cc1ccccc1)NC(=O)c1nc([C@@H](C[C@H](C(C)C)N(C)C(=O)[C@@H](NC(=O)[C@H]2CCCN2C)C(C)C)OC(C)=O)sc1C [Tb70, Methyl (2S,4R)-4-[({2-[(1R,3R)-1-acetoxy-4-methyl-3-{methyl[(2S)-3-methyl-2-({[(2R)-1-methyl-pyrrolidin-2-yl]carbonyl}amino)butanoyl]amino}pentyl]-5-methyl-1,3-thiazol-4-yl}carbonyl)amino]-2-methyl-5-phenylpentanoate]	–	3.11	–	2.32	–	> 1000	significant loss of potency
CC[C@H](C)[C@H](NC(=O)c1cccn1C)C(=O)N(C)[C@H](C[C@@H](OC(C)=O)c1nc(C(=O)N[C@@H](Cc2ccccc2)C[C@H](C)C(=O)OC)cs1)C(C)C [Tb50]	–	> 1000	–	> 1000	–	> 1000	insignificant or low biological activity
